According to publication PMC6332320, “Factors Influencing Oral Bioavailability of Thai Mango Seed Kernel Extract and Its Key Phenolic Principles” (Molecules, 2015):

Columns and labels:
Caco-2 cell lysates = assay: Biological stability in Caco-2 cell lysates; type: in vitro ADME, human; details: individual compound 100 µM, HBSS pH 6, up to 24 h
Protocol: Caco-2 cells were cultured in T75 flasks at a seeding density of 2 × 10^6 cells/flask for 12–15 days. The cell lysate was freshly prepared by washing the cells twice with ice-cold HBSS at pH 6 (12 mL). The cells were then collected by scraping and resuspending in ice-cold HBSS at pH 6 (7.5 mL/flask). The cell suspension was vortexed and sonicated in an ice water bath for 30 min to obtain the lysate, which was kept on ice until use, and its cellular protein concentration was determined using a BCA™ protein assay kit (Thermo Fisher Scientific, Rockford, IL, USA) with bovine serum albumin as a reference standard.
Many phenolic compounds were subject to sulfation and glucuronidation by Caco-2 cells at concentrations higher than 20 μM [16, 21, 43] and the metabolites of GA, MG and PGG could not be observed in Caco-2 transport experiment. Therefore, the concentration of the standard pure compounds used in this study was higher than that used in the chemical stability experiment. After preparing the cell lysate, the test compounds were prepared by dissolution in HBSS at pH 6 and then added to the lysates for a final concentration of 1.08 mg/mL protein to obtain final individual concentrations of 100 μM for GA, MG and PGG and 0.75 mg/mL for MSKE, which is equivalent to concentrations of 55.12 ± 4.57 µM GA, 7.56 ± 0.85 µM MG and 110.02 ± 17.52 µM PGG. The mixtures were then incubated in a water bath at 37 °C for 24 h, and samples (50 µL for standard compounds, and 200 µL for MSKE) were collected at 0, 4, 6 and 24 h. Each sample was then added to an ice-cold 50% methanol (150 µL for GA, MG and PGG, and 600 µL for MSKE) to stop the reaction, vortexed and centrifuged at 15,500 rpm for 15 min, and the supernatant was injected into the UPLC for analysis.
The chemical and biological stabilities of the phenolic compounds were expressed as the concentration of the analyte at different time points relative to the concentration of the same analyte at time zero multiplied by 100 (% recovery).

[1] = mouse, in vivo, po, 80 mg/kg; cited from earlier work
Caco-2 cells = details: cited from earlier work
[2] = rat, in vivo, ip, 20 mg/kg; cited from earlier work

O=C(OC[C@H]1O[C@@H](OC(=O)c2cc(O)c(O)c(O)c2)[C@H](OC(=O)c2cc(O)c(O)c(O)c2)[C@@H](OC(=O)c2cc(O)c(O)c(O)c2)[C@@H]1OC(=O)c1cc(O)c(O)c(O)c1)c1cc(O)c(O)c(O)c1 [PGG, Pentagalloylglucopyranose]
stability in HBSS at pH 6 (blank control) (Caco-2 cell lysates): stable in HBSS at pH 6 for 6 h and slightly degraded within 24 h | plasma PGG levels [1]: below the limit of detection | Papp AB (Caco-2 cells): 0.08 ± 0.03 × 10^−6 cm/s | Cmax [2]: 6 µM
